# Key:
# Assay type in all cases: cell-based, Human
# UMRC2 = assay: Cell growth inhibition assay (SRB), UMRC2; settings: UMRC2 (kidney), 96 hours
# Text: (§1) Cancer cells used in this study to determine the effect of quinazoline compounds were obtained from the following sources: Human OVCAR-3 (ovary), MCF-7 (breast, hormone-dependent), Hs 578T (breast), MDA-MB-231 (breast), HeLa (cervix), PC3 (prostate), HepG2 (liver), A549 (lung), Caki-1 (kidney), HT-29 (colon), HCT116 (colon) and PANC-1 (pancreas) from the American Type Culture Collection (ATCC) (Manassas, Va.); U251 (brain) from Riken (Japan); MKN-45 (stomach) from DSMZ (Germany); UMRC2 (kidney) and Lox IMVI (melanoma) from the United States National Cancer Institute (Bethesda, Md.). All cell lines except Hs 578T, MDA-MB-231, HCT116, UMRC2, Caki-1 and PANC-1 were grown in RPMI1640 medium (Invitrogen, Carlsbad, Calif.) supplemented with 10% fetal bovine serum (“FBS”), 1 mM sodium pyruvate, 10 mM HEPES and 100 U/ml penicillin and 100 μg/ml streptomycin (“P/S”). Hs 578T, MDA-MB-231, HCT116, UMRC2, Caki-1 and PANC-1 cells were maintained in Dulbecco's modified Eagle's medium (“DMEM”, Invitrogen) supplemented with 10% FBS, P/S, 10 mM HEPES and 2 mM L-glutamine. All cells were incubated at 37° C. under humidified 5% CO2.
# (§2) The growth inhibition of the substituted quinazoline derivative compounds against a variety of human tumor cells was evaluated. The relative importance of particular substituent groups on the compounds was also studied. The substituted quinazoline derivative compounds, prepared as described above, were tested, along with DMSO as a control.
# (§3) The growth inhibition assay of various compounds against 15 human tumor cell lines was performed using the Sulforhodamnine B (“SRB”) method (Skehan et al., J. National Cancer Institute, 82: 1107-1112 (1990)). Briefly, exponentially growing tumor cells were seeded into a 96-well plate at a density of 2-3×10^3 cells/well and treated with quinazoline compounds the next day. Triplicate wells were used for each treatment. The cells were. incubated with the various compounds for 96 hours at 37° C. in a humidified 5% CO2 atmosphere. After 96-hour incubation, cells were fixed with 10% trichloroacetic acid (“TCA”), incubated for 1 hour at 4° C., and washed 3 times with tap water. Subsequently cells were stained with 0.4% sulforhodamine B in 1% acetic acid for 30 minutes, washed 4 times with 1% acetic acid, and air-dried again. After 5 minutes agitation in 10 mM Tris solution, the absorbance of each well was measured at 530 nm using Benchmark Plus Microplate reader (Bio-Rad Laboratories, Hercules, Calif.).
# (§4) To translate the OD530 values into the number of live cells in each well, the OD530 values were compared to those on standard OD530—versus—cell number curves generated for each cell line. The percent survival was calculated using the formula: % Survival=live cell number [test]/live cell number [control]×100
# (§5) The IC50 values were calculated by non-linear regression analysis.
# OVCAR-3 = assay: Cell growth inhibition assay (SRB), OVCAR-3; settings: OVCAR-3 (ovary), 96 hours
# Text: as §1, §2, §3, §4, §5
# Caki-1 = assay: Cell growth inhibition assay (SRB), Caki-1; settings: Caki-1 (kidney), 96 hours
# Text: as §1, §2, §3, §4, §5
# HepG2 = assay: Cell growth inhibition assay (SRB), HepG2; settings: HepG2 (liver), 96 hours, read-out: Inhibition of cell growth (IC50, μM) HepG 2
# Text: as §1, §2, §3, §4, §5
# MDA-MB-231 = assay: Cell growth inhibition assay (SRB), MDA-MB-231; settings: MDA-MB-231 (breast), 96 hours
# Text: as §1, §2, §3, §4, §5
# MCF-7 = assay: Cell growth inhibition assay (SRB), MCF-7; settings: MCF-7 (breast, hormone-dependent), 96 hours
# Text: as §1, §2, §3, §4, §5
# Hs 578T = assay: Cell growth inhibition assay (SRB), Hs 578T; settings: Hs 578T (breast), 96 hours
# Text: as §1, §2, §3, §4, §5
# HeLa = assay: Cell growth inhibition assay (SRB), HeLa; settings: HeLa (cervix), 96 hours
# Text: as §1, §2, §3, §4, §5
# A549 = assay: Cell growth inhibition assay (SRB), A549; settings: A549 (lung), 96 hours
# Text: as §1, §2, §3, §4, §5
# PANC-1 = assay: Cell growth inhibition assay (SRB), PANC-1; settings: PANC-1 (pancreas), 96 hours
# Text: as §1, §2, §3, §4, §5
# HT-29 = assay: Cell growth inhibition assay (SRB), HT-29; settings: HT-29 (colon), 96 hours
# Text: as §1, §2, §3, §4, §5
# Lox IMVI = assay: Cell growth inhibition assay (SRB), Lox IMVI; settings: Lox IMVI (melanoma), 96 hours
# Text: as §1, §2, §3, §4, §5
# U251 = assay: Cell growth inhibition assay (SRB), U251; settings: U251 (brain), 96 hours
# Text: as §1, §2, §3, §4, §5
# PC3 = assay: Cell growth inhibition assay (SRB), PC3; settings: PC3 (prostate), 96 hours
# Text: as §1, §2, §3, §4, §5
# MKN-45 = assay: Cell growth inhibition assay (SRB), MKN-45; settings: MKN-45 (stomach), 96 hours
# Text: as §1, §2, §3, §4, §5
IC50 (OVCAR-3),IC50 (HepG2),IC50 (MDA-MB-231),IC50 (MCF-7),IC50 (HeLa),IC50 (A549),IC50 (PANC-1),IC50 (HT-29),IC50 (U251),IC50 (PC3),IC50 (MKN-45),Structure (SMILES),IC50 (UMRC2),IC50 (Caki-1),IC50 (Hs 578T),IC50 (Lox IMVI)
1.01 µM,2.39 µM,0.73 µM,0.63 µM,1.3 µM,2 µM,1.42 µM,2.55 µM,0.57 µM,0.88 µM,1.33 µM,Cc1cc(C)c(Nc2ncnc3ccc([N+](=O)[O-])cc23)c(C)c1 [RX-1122],1.09 µM,1.11 µM,1.35 µM,1.1 µM
2.6 µM,1.18 µM,0.46 µM,1.53 µM,> 3 µM,2.1 µM,0.34 µM,2.07 µM,1.95 µM,> 3 µM,> 3 µM,Fc1cccc(CCNc2ncnc3ccccc23)c1 [RX-1195],0.41 µM,> 3 µM,0.44 µM,2.16 µM
> 3 µM,0.9 µM,0.88 µM,0.58 µM,> 3 µM,2.4 µM,> 3 µM,> 3 µM,0.56 µM,> 3 µM,> 3 µM,Fc1cccc(CCNc2ncnc3ccc(Br)cc23)c1 [RX-1242],1.29 µM,2.39 µM,1.03 µM,0.73 µM
> 3 µM,0.9 µM,0.34 µM,0.55 µM,> 3 µM,1.92 µM,> 3 µM,> 3 µM,0.42 µM,> 3 µM,> 3 µM,Brc1ccc2ncnc(NCCCCc3ccccc3)c2c1 [RX-1251],0.47 µM,1.96 µM,0.43 µM,0.19 µM
> 3 µM,2.25 µM,> 3 µM,0.74 µM,> 3 µM,> 3 µM,> 3 µM,> 3 µM,0.69 µM,> 3 µM,> 3 µM,FC(F)(F)c1ccccc1CNc1ncnc2ccc(Br)cc12 [RX-1260],> 3 µM,> 3 µM,> 3 µM,> 3 µM
> 3 µM,0.75 µM,> 3 µM,> 3 µM,> 3 µM,2.86 µM,> 3 µM,> 3 µM,2.97 µM,> 3 µM,> 3 µM,Fc1cc(Cl)ccc1Nc1ncnc2ccc(Br)cc12 [RX-1279],> 3 µM,2.15 µM,> 3 µM,> 3 µM
2.86 µM,0.91 µM,0.47 µM,1.26 µM,> 3 µM,1.89 µM,0.22 µM,1.26 µM,1.78 µM,> 3 µM,> 3 µM,Cc1cccc2ncnc(NCCc3ccc(F)cc3)c12 [RX-1541],0.37 µM,> 3 µM,0.53 µM,2.96 µM
> 3 µM,1 µM,> 3 µM,0.36 µM,> 3 µM,> 3 µM,> 3 µM,> 3 µM,0.51 µM,> 3 µM,> 3 µM,Ic1ccc2ncnc(NC3CCCCC3)c2c1 [RX-1659],> 3 µM,1.71 µM,> 3 µM,1.95 µM
> 3 µM,0.3 µM,> 3 µM,0.23 µM,> 3 µM,> 3 µM,1.83 µM,> 3 µM,0.27 µM,> 3 µM,> 3 µM,Fc1cccc(CCNc2ncnc3ccc(I)cc23)c1 [RX-1668],1.83 µM,2.93 µM,0.89 µM,> 3 µM
> 3 µM,1.51 µM,1.06 µM,0.43 µM,> 3 µM,> 3 µM,> 3 µM,> 3 µM,0.62 µM,> 3 µM,> 3 µM,Ic1ccc2ncnc(NCCCCc3ccccc3)c2c1 [RX-1670],1.53 µM,> 3 µM,1.35 µM,0.88 µM
> 3 µM,1.51 µM,> 3 µM,0.55 µM,> 3 µM,> 3 µM,> 3 µM,> 3 µM,0.53 µM,> 3 µM,> 3 µM,FC(F)(F)c1ccccc1CNc1ncnc2ccc(I)cc12 [RX-1682],> 3 µM,> 3 µM,> 3 µM,> 3 µM
> 3 µM,1.16 µM,> 3 µM,1.36 µM,> 3 µM,> 3 µM,> 3 µM,> 3 µM,2.19 µM,> 3 µM,> 3 µM,Fc1cc(Cl)ccc1Nc1ncnc2ccc(I)cc12 [RX-1701],> 3 µM,2.85 µM,> 3 µM,> 3 µM
> 3 µM,2.47 µM,0.84 µM,1.34 µM,> 3 µM,> 3 µM,> 3 µM,> 3 µM,1.93 µM,> 3 µM,> 3 µM,c1ccc(CCCCNc2ncnc3cc4[nH]cnc4cc23)cc1 [RX-1842],1.98 µM,> 3 µM,1.05 µM,1.15 µM
> 3 µM,> 3 µM,> 3 µM,> 3 µM,> 3 µM,> 3 µM,> 3 µM,> 3 µM,> 3 µM,> 3 µM,> 3 µM,Cn1cnc2cc3ncnc(NCCc4ccccc4F)c3cc21 [RX-1857],> 3 µM,1.57 µM,> 3 µM,> 3 µM
> 3 µM,1.29 µM,> 3 µM,0.68 µM,> 3 µM,> 3 µM,> 3 µM,> 3 µM,0.91 µM,> 3 µM,> 3 µM,Cn1cnc2cc3ncnc(NCc4cccc(F)c4)c3cc21 [RX-1881],> 3 µM,2.34 µM,> 3 µM,> 3 µM
> 3 µM,0.85 µM,> 3 µM,1.17 µM,> 3 µM,> 3 µM,> 3 µM,1.7 µM,0.9 µM,> 3 µM,> 3 µM,Cn1cnc2cc3ncnc(NCCc4cccc(F)c4)c3cc21 [RX-1894],> 3 µM,2.33 µM,> 3 µM,> 3 µM

# From US7388014B2, “Quinazoline derivatives and therapeutic use thereof” (Rexahn Pharmaceuticals, Inc., priority 2004, dated 2008)
